Experimental findings from patent US20210388012A1, “METHODS AND COMPOSITIONS FOR PRODRUG FORMS OF SPECTINOMYCIN AND SPECTINAMIDE ANALOGS” (priority 2018, published 2021) are described below.

Bounds are passed on as bounds.

The nature of one data set: in vitro. It counts as in vitro ADME. Particulars: human plasma, 37° C., read-out: Plasma Stability (Human) t½ (converted). How it is done: (§1) LC-MS Method 2. Chromatographic separation was performed on an Acquity UPLC BEH C18 1.7 μm, 2.1×50 mm column (Waters Corporation, Milford, Mass.) or a Luna Omega 1.6 μm C18, 2.1×50 mm column (Phenomenex, Torrance, Calif.) using an Acquity ultra performance liquid chromatography system. Data were acquired using Masslynx v. 4.1 and analyzed using the Openlynx software suite. This was coupled to an Acquity photodiode array detector, which acquired UV data from 210-400 nm. The flow was then split, with half directed to an evaporative light scattering detector (ELSD) and half to an SQ mass spectrometer. The total flow rate was 1 mL/min. The sample injection volume was 10 μL. The UPLC column was maintained at 60° C. and the gradient program with either basic mobile phase (A1, 10 mM ammonium bicarbonate in MilliQ H2O; B1, 0.1% formic acid in acetonitrile) or formic mobile phase (A1, 0.1% formic acid in MilliQ H2O; B1, 0.1% formic acid in acetonitrile) based on the compounds' physical and chemical properties. The mass spectrometer was operated in positive-ion mode with electrospray ionization. The conditions were as follows; capillary voltage 3.4 kV, cone voltage 30 V, source temperature 130° C., desolvation temperature 400° C., desolvation gas 800 L/hr, cone gas 100 L/hr. A full scan range from m/z=110-1000 in 0.2 s was used to acquire MS data. The ELSD-drift tube temperature was set at 52° C.
Plasma stability was determined after incubation in human plasma for various incubation time, i.e., incubation times of 0, 3, 24, and 48 hour were used. DMSO stock solutions of test compounds were prepared at 10 mM concentration. 1.8 μL of each test compound was each added directly to 1.8 mL of human plasma to get the final concentration of 10 μM. This compound/matrix was mixed and 70 μL was transferred to 4 time points plates (each in triplicate wells). […] The plasma stability was evaluated via the half-life from least-squares fit of the multiple time points based on first-order kinetics.

Data set [1] relates to M. tuberculosis Erdman (TMCC107). Nature of the data set: Murine model of acute TB infection. It counts as in vivo. Particulars: BALB/c mice, subcutaneous injection 400 mg/kg daily, 12 consecutive days.
Data set [2] addresses Mycobacterium smegmatis 70S bacterial ribosomes. Nature of the data set: Ribosomal inhibition assay (luciferase-based protein synthesis inhibition). Particulars: purified M. smegmatis 70S ribosomes, firefly luciferase mRNA. It counts as biochemical. How it is done: In vitro activity was also assessed using a ribosomal inhibition assay. Briefly, luciferase-based protein synthesis inhibition assays were performed in translation reaction as described previously (Bruell, et al. Biochemistry. 2008 47 (34), 8828-8839), using purified Mycobacterium smegmatis 70S bacterial ribosomes and firefly luciferase mRNA prepared in vitro using T7 RNA polymerase. IC50 values represent the drug concentration that inhibits luciferase activity by 50%.

Data set [3] can be described thus: Metabolic stability, human liver microsomal degradation. The format is in vitro ADME. Particulars: human liver microsomes; read-out: Metabolic Stability (Human) t½ (converted). How it is done: as §1
The stability of compounds to human liver microsomal degradation, i.e., metabolic stability, was determined as described previously (see North, E. J., et al, Bioorg. Med. Chem. (2013) 21(9):2587-2599) and the rate of degradation was monitored by LC-MS analysis using multiple sampled time points as described herein above in LC-MS Method 2. Metabolic stability was evaluated via the half-life from least squares fit of the concentration remaining at the time points based on first-order kinetics.

Turning to `CN[C@@H]1[C@H](O)[C@H](NC)[C@H]2O[C@]3(O)[C@H](O[C@@H]2[C@H]1O)O[C@H](C)C[C@H]3NC(=O)Cc1ccc(OP(=O)(O)O)cn1` [Compound 3408, 6-(2-oxo-2-(((2R,4R,4a5,5aR,6S,7S,8R,9S,9aR,10aS)-4a,7,9-trihydroxy-2-methyl-6,8-bis(methylamino)decahydro-2H-benzo[b]pyrano[2,3-e][1,4]dioxin-4-yl)amino)ethyl)pyridin-3-yl dihydrogen phosphate], the half-life at 10 µM in “in vitro” was < 5 min. In addition, the “Efficacy in mouse model of acute tuberculosis infection (lung CFU, FIG. 1)” value in data set [1] is “similarly active”. Further, in data set [2], the “IC50 (M. smegmatis)” value is 6.70 mg/L. The half-life in data set [3] is < 5 min.
